Data published in ChEMBL document CHEMBL1153831, “Azithromycin blocks quorum sensing and alginate polymer formation and increases the sensitivity to serum and stationary-growth-phase killing of Pseudomonas aeruginosa and attenuates chronic P. aeruginosa lung infection in Cftr(-/-) mice” (Antimicrob Agents Chemother, 2007).
The source made the active and inactive calls. No cut-off for these calls is given here.

Columns and labels:
Pseudomonas aeruginosa [1] = experiment: Inhibition of quorum sensing-regulated elastase production in Pseudomonas aeruginosa NH57388A mucoid isolate harboring GFP-fused […] lasB gene assessed as enzyme activity per cell at 2 ug/mL after 24 hrs relative to control; format: functional
Pseudomonas aeruginosa [2] = experiment: Inhibition of quorum sensing-regulated elastase production in Pseudomonas aeruginosa NH57388A mucoid isolate harboring GFP-fused […] lasB gene assessed as enzyme activity per cell at 4 ug/mL after 24 hrs relative to control; format: functional
Pseudomonas aeruginosa [3] = experiment: Inhibition of quorum sensing-regulated elastase production in Pseudomonas aeruginosa NH57388A mucoid isolate harboring GFP-fused […] lasB gene assessed as enzyme activity per cell at 8 ug/mL after 24 hrs relative to control; format: functional
Pseudomonas aeruginosa [4] = experiment: Inhibition of quorum sensing-regulated chitinase production in Pseudomonas aeruginosa NH57388A mucoid isolate harboring GFP-fused […] lasB gene assessed as enzyme activity per cell at 2 ug/mL after 24 hrs relative to control; format: functional
Pseudomonas aeruginosa [5] = experiment: Inhibition of quorum sensing-regulated chitinase production in Pseudomonas aeruginosa NH57388A mucoid isolate harboring GFP-fused […] lasB gene assessed as enzyme activity per cell at 4 ug/mL after 24 hrs relative to control; format: functional
Pseudomonas aeruginosa [6] = experiment: Inhibition of quorum sensing-regulated chitinase production in Pseudomonas aeruginosa NH57388A mucoid isolate harboring GFP-fused […] lasB gene assessed as enzyme activity per cell at 8 ug/mL after 24 hrs relative to control; format: functional
Pseudomonas aeruginosa [7] = experiment: Inhibition of quorum sensing-regulated pyocyanin production in Pseudomonas aeruginosa NH57388A mucoid isolate harboring GFP-fused […] lasB gene assessed as enzyme activity per cell at 2 ug/mL after 24 hrs relative to control; format: functional
Pseudomonas aeruginosa [8] = experiment: Inhibition of quorum sensing-regulated pyocyanin production in Pseudomonas aeruginosa NH57388A mucoid isolate harboring GFP-fused […] lasB gene assessed as enzyme activity per cell at 4 ug/mL after 24 hrs relative to control; format: functional
Pseudomonas aeruginosa [9] = experiment: (§1) Antimicrobial activity against Pseudomonas aeruginosa NH57388A mucoid isolate harboring GFP-fused […] lasB gene infected in ftr-tml-Unc-TgN(FABPCFTR) cystic fibrosis mouse assessed as mortality at 500 mg/kg, po administered 24 hrs postinfection daily once for 5 days measured after 7 days postinfection; format: functional
Pseudomonas aeruginosa [10] = experiment: as §1, with “activity in” for “activity against”, “mouse lungs” for “mouse”, “as median alginate content in lungs” for “as mortality”, “hrs after infection” for “hrs postinfection”; format: functional
Pseudomonas aeruginosa [11] = experiment: as §1, with “activity in” for “activity against”, “as frequency of lung abscesses” for “as mortality”, “hrs after infection” for “hrs postinfection”; format: functional
Pseudomonas aeruginosa [12] = experiment: (§2) Antimicrobial activity in Pseudomonas aeruginosa NH57388A mucoid isolate harboring GFP-fused avian sarcoma virus lasB gene infected in ftr-tml-Unc-TgN(FABPCFTR) cystic fibrosis mouse lung assessed as debris-like granular material surrounding polymorphonuclear leukocytes at 500 mg/kg, po administered 24 hrs after infection daily once for 5 days measured after 7 days postinfection by histopathology; format: functional, organism-based; parameters: dose 500 mg/kg
Pseudomonas aeruginosa [13] = experiment: as §2, with “fibrous spongy-like” for “debris-like granular”; format: functional, organism-based; parameters: dose 500 mg/kg
Pseudomonas aeruginosa [14] = experiment: as §2, with “scattered residues of alginate without bacteria” for “debris-like granular material surrounding polymorphonuclear leukocytes”; format: functional, organism-based; parameters: dose 500 mg/kg
[15] = Drug level in Cftr-tml-Unc-TgN(FABPCFTR) cystic fibrosis mouse serum at 500 mg/kg, po after 2 hrs; format: ADME, organism-based; parameters: dose 500 mg/kg, route oral; settings: read-out: Drug uptake
[16] = Drug level in Cftr-tml-Unc-TgN(FABPCFTR) cystic fibrosis mouse serum at 500 mg/kg, po after 4 hrs; format: ADME, organism-based; parameters: dose 500 mg/kg, route oral; settings: read-out: Drug uptake
[17] = Drug level in Cftr-tml-Unc-TgN(FABPCFTR) cystic fibrosis mouse serum at 500 mg/kg, po after 0.5 hrs; format: ADME, organism-based; parameters: dose 500 mg/kg, route oral; settings: read-out: Drug uptake
[18] = Drug level in Cftr-tml-Unc-TgN(FABPCFTR) cystic fibrosis mouse serum at 500 mg/kg, po after 1 hr; format: ADME, organism-based; parameters: dose 500 mg/kg, route oral; settings: read-out: Drug uptake
Mus musculus = species on record: Mus musculus; experiment: Elimination half life in healthy mouse; format: ADME, organism-based; settings: in vivo
[19] = Elimination half life in Cftr-tml-Unc-TgN(FABPCFTR) cystic fibrosis mouse model at 500 mg/kg, po; format: ADME, organism-based; parameters: dose 500 mg/kg, route oral; settings: in vivo, read-out: beta t1/2 (converted)
Pseudomonas aeruginosa [20] = experiment: Antimicrobial activity against Pseudomonas aeruginosa NH57388A mucoid isolate assessed as reduction of viable count in stationary phase at 2 ug/mL after 8 hrs; format: functional
Pseudomonas aeruginosa [21] = experiment: Antimicrobial activity against Pseudomonas aeruginosa NH57388A mucoid isolate after overnight incubation by E-test; format: functional
Pseudomonas aeruginosa [22] = experiment: Antimicrobial activity against Pseudomonas aeruginosa NH57388A mucoid isolate assessed as reduction of viable count in stationary phase at 16 ug/mL after 8 hrs; format: functional
Pseudomonas aeruginosa [23] = experiment: Antimicrobial activity against Pseudomonas aeruginosa NH57388A mucoid isolate assessed as reduction of viable count in exponential phase at 64 ug/mL after 8 hrs; format: functional
Pseudomonas aeruginosa [24] = experiment: Antimicrobial activity against Pseudomonas aeruginosa NH57388A mucoid isolate assessed as reduction of viable count in exponential phase at 256 ug/mL after 8 hrs; format: functional
Pseudomonas aeruginosa [25] = experiment: Inhibition of quorum sensing in Pseudomonas aeruginosa NH57388A mucoid isolate harboring GFP-fused […] lasB gene assessed as suppression of GFP expression after 14 hrs by molecular technology; format: functional, organism-based
Pseudomonas aeruginosa [26] = experiment: Toxicity in Pseudomonas aeruginosa NH57388A mucoid isolate harboring GFP-fused […] lasB gene assessed as growth rate at 2 to 12 ug/mL after 14 hrs by molecular technology relative to control; format: organism-based
Pseudomonas aeruginosa [27] = experiment: Inhibition of quorum sensing-regulated pyocyanin production in Pseudomonas aeruginosa NH57388A mucoid isolate harboring GFP-fused […] lasB gene assessed as enzyme activity per cell at 8 ug/mL after 24 hrs relative to control; format: functional
Pseudomonas aeruginosa [28] = experiment: Inhibition of quorum sensing-regulated alginate production in Pseudomonas aeruginosa NH57388A mucoid isolate harboring GFP-fused […] lasB gene assessed as enzyme activity per cell at 2 ug/mL after 24 hrs relative to control; format: functional
Pseudomonas aeruginosa [29] = experiment: Inhibition of quorum sensing-regulated alginate production in Pseudomonas aeruginosa NH57388A mucoid isolate harboring GFP-fused […] lasB gene assessed as enzyme activity per cell at 4 ug/mL after 24 hrs relative to control; format: functional
Pseudomonas aeruginosa [30] = experiment: Inhibition of quorum sensing-regulated alginate production in Pseudomonas aeruginosa NH57388A mucoid isolate harboring GFP-fused […] lasB gene assessed as enzyme activity per cell at 8 ug/mL after 24 hrs relative to control; format: functional
Pseudomonas aeruginosa [31] = experiment: Inhibition of alginate synthesis in Pseudomonas aeruginosa NH57388A mucoid isolate supernatant assessed as uronic acid concentration in inside of dialysis bag after equilibrium dialysis at 12 ug/mL after 24 hrs by carbazole-borate assay; format: functional
Pseudomonas aeruginosa [32] = experiment: Inhibition of alginate synthesis in Pseudomonas aeruginosa NH57388A mucoid isolate supernatant assessed as uronic acid concentration in outside of dialysis bag after equilibrium dialysis at 12 ug/mL after 24 hrs by carbazole-borate assay; format: functional
Pseudomonas aeruginosa [33] = experiment: Inhibition of alginate synthesis in Pseudomonas aeruginosa NH57388A mucoid isolate supernatant assessed as uronic acid fraction out of the dialysis bag of total amount of uronic acids after equilibrium dialysis at 12 ug/mL after 24 hrs by carbazole-borate assay; format: functional; parameters: scale not given: the % may be the effect or the level left
Pseudomonas aeruginosa [34] = experiment: Inhibition of alginate synthesis in Pseudomonas aeruginosa NH57388A mucoid isolate supernatant assessed as uronic acid concentration in dialysis bag before exhaustive dialysis at 12 ug/mL after 24 hrs by carbazole-borate assay; format: functional
Pseudomonas aeruginosa [35] = experiment: Inhibition of alginate synthesis in Pseudomonas aeruginosa NH57388A mucoid isolate supernatant assessed as uronic acid concentration in dialysis bag after exhaustive dialysis at 12 ug/mL after 24 hrs by carbazole-borate assay; format: functional
Pseudomonas aeruginosa [36] = experiment: Inhibition of alginate synthesis in Pseudomonas aeruginosa NH57388A mucoid isolate supernatant assessed as uronic acid fraction out of the dialysis bag of total amount of uronic acids after exhaustive dialysis at 12 ug/mL after 24 hrs by carbazole-borate assay; format: functional; parameters: scale not given: the % may be the effect or the level left
Pseudomonas aeruginosa [37] = experiment: Increase in sensitivity of hydrogen peroxide to Pseudomonas aeruginosa NH57388A mucoid isolate expressing quorum sensing lasI assessed as increase in zone of inhibition at 12 ug/mL after 48 hrs relative to untreated bacterial control; format: functional; parameters: scale not given: the % may be the effect or the level left
Pseudomonas aeruginosa [38] = experiment: Increase in sensitivity of hydrogen peroxide to quorum sensing lasI-deficient isogenic Pseudomonas aeruginosa NH57388A mucoid isolate mutant assessed as increase in zone of inhibition at 12 ug/mL after 48 hrs relative to untreated bacterial control; format: functional; parameters: scale not given: the % may be the effect or the level left
Pseudomonas aeruginosa [39] = experiment: Antimicrobial activity against quorum sensing lasI-deficient isogenic Pseudomonas aeruginosa NH57388D mucoid isolate assessed as reduction of viable count at 12 ug/mL in presence of 2.5% human normal serum; format: functional
Pseudomonas aeruginosa [40] = experiment: Antimicrobial activity against Pseudomonas aeruginosa NH57388A mucoid isolate expressing quorum sensing lasI assessed as reduction of viable count at 12 ug/mL in absence of 2.5% human normal serum; format: functional
Pseudomonas aeruginosa [41] = experiment: Antimicrobial activity against quorum sensing lasI-deficient isogenic Pseudomonas aeruginosa NH57388D mucoid isolate assessed as reduction of viable count at 12 ug/mL in absence of 2.5% human normal serum; format: functional
Pseudomonas aeruginosa [42] = experiment: Antimicrobial activity against Pseudomonas aeruginosa NH57388C nonmucoid isolate expressing quorum sensing lasI assessed as reduction of viable count at 12 ug/mL in absence of 2.5% human normal serum; format: functional
Pseudomonas aeruginosa [43] = experiment: Antimicrobial activity against quorum sensing lasI-deficient isogenic Pseudomonas aeruginosa NH57388E nonmucoid isolate assessed as reduction of viable count at 12 ug/mL in absence of 2.5% human normal serum; format: functional
Pseudomonas aeruginosa [44] = experiment: Antimicrobial activity against Pseudomonas aeruginosa NH57388A mucoid isolate expressing quorum sensing lasI assessed as reduction of viable count at 12 ug/mL in presence of 2.5% human normal serum; format: functional
Pseudomonas aeruginosa [45] = experiment: Antimicrobial activity against Pseudomonas aeruginosa NH57388C nonmucoid isolate expressing quorum sensing lasI assessed as reduction of viable count at 12 ug/mL in presence of 2.5% human normal serum; format: functional
Pseudomonas aeruginosa [46] = experiment: Antimicrobial activity against quorum sensing lasI-deficient isogenic nonmucoid Pseudomonas aeruginosa NH57388E mutant assessed as reduction of viable count at 12 ug/mL in presence of 2.5% human normal serum; format: functional
[47] = Elimination half life in human; format: ADME, organism-based; settings: in vivo, read-out: beta t1/2 (converted)
Pseudomonas aeruginosa [48] = experiment: Antimicrobial activity against Pseudomonas aeruginosa NH57388A mucoid isolate harboring GFP-fused […] lasB gene infected in ftr-tml-Unc-TgN(FABPCFTR) cystic fibrosis mouse lungs assessed as reduction in GFP signal at 250 mg/kg, iv administered 24 hrs after infection measured after 24 hrs; format: functional, organism-based; parameters: dose 250 mg/kg

SMILES: CC[C@H]1OC(=O)[C@H](C)[C@@H](O[C@H]2C[C@@](C)(OC)[C@@H](O)[C@H](C)O2)[C@H](C)[C@@H](O[C@@H]2O[C@H](C)C[C@H](N(C)C)[C@H]2O)[C@](C)(O)C[C@@H](C)CN(C)[C@H](C)[C@@H](O)[C@]1(C)O [AZITHROMYCIN]
- inhibition at 2 µg/mL (Pseudomonas aeruginosa [1]): 77%
- inhibition at 4 µg/mL (Pseudomonas aeruginosa [2]): 45%
- inhibition at 8 µg/mL (Pseudomonas aeruginosa [3]): 51%
- inhibition at 2 µg/mL (Pseudomonas aeruginosa [4]): 66%
- inhibition at 4 µg/mL (Pseudomonas aeruginosa [5]): 15%
- inhibition at 8 µg/mL (Pseudomonas aeruginosa [6]): 10%
- inhibition at 2 µg/mL (Pseudomonas aeruginosa [7]): 43%
- inhibition at 4 µg/mL (Pseudomonas aeruginosa [8]): 32%
- Activity (Pseudomonas aeruginosa [9]): 24%
- Activity (Pseudomonas aeruginosa [10]): 10 µg/mL
- Activity (Pseudomonas aeruginosa [11]): 32%
- Activity (Pseudomonas aeruginosa [12]): Active
- Activity (Pseudomonas aeruginosa [13]): Active
- Activity (Pseudomonas aeruginosa [14]): Active
- concentration at 2 h [15]: 3100 ng/mL
- concentration at 4 h [16]: 1700 ng/mL
- concentration at 0.5 h [17]: 2900 ng/mL
- concentration at 1 h [18]: 2900 ng/mL
- beta t1/2 (Mus musculus): 0.733 h
- half-life [19]: 2.3 h
- Activity (Pseudomonas aeruginosa [20]): 88%
- MIC (Pseudomonas aeruginosa [21]): > 256 µg/mL
- Activity (Pseudomonas aeruginosa [22]): 99%
- Activity (Pseudomonas aeruginosa [23]): 87%
- Activity (Pseudomonas aeruginosa [24]): 99%
- Activity (Pseudomonas aeruginosa [25]): Dose-dependent effect
- Activity (Pseudomonas aeruginosa [26]): Non-toxic
- inhibition at 8 µg/mL (Pseudomonas aeruginosa [27]): 16%
- inhibition at 2 µg/mL (Pseudomonas aeruginosa [28]): 63%
- inhibition at 4 µg/mL (Pseudomonas aeruginosa [29]): 56%
- inhibition at 8 µg/mL (Pseudomonas aeruginosa [30]): 52%
- Activity (Pseudomonas aeruginosa [31]): 316 µg/mL
- Activity (Pseudomonas aeruginosa [32]): 143 µg/mL
- Activity (Pseudomonas aeruginosa [33]): 31.2%
- Activity (Pseudomonas aeruginosa [34]): 316 µg/mL
- Activity (Pseudomonas aeruginosa [35]): 103 µg/mL
- Activity (Pseudomonas aeruginosa [36]): 67.4%
- Activity (Pseudomonas aeruginosa [37]): 31%
- Activity (Pseudomonas aeruginosa [38]): 43%
- CFU (Pseudomonas aeruginosa [39]): 8.6 ×10⁵ /ml
- CFU (Pseudomonas aeruginosa [40]): 31 ×10⁶ /ml
- CFU (Pseudomonas aeruginosa [41]): 55 ×10⁶ /ml
- CFU (Pseudomonas aeruginosa [42]): 110 ×10⁵ /ml
- CFU (Pseudomonas aeruginosa [43]): 3.8 ×10⁷ /ml
- CFU (Pseudomonas aeruginosa [44]): 2.5 ×10² /ml
- CFU (Pseudomonas aeruginosa [45]): 0 mL
- CFU (Pseudomonas aeruginosa [46]): 2 ×10³ /ml
- half-life [47]: 68 h
- Activity (Pseudomonas aeruginosa [48]): Active
